From patent US20130336987A1, “Identification of Therapeutic Targets in Cutaneous SCC” (UNIVERSITY OF DUNDEE, priority 2010, published 2013)
Entries after “also recorded” stand apart in the source; their conditions may differ.

Columns and labels:
[1] = system: normal human keratinocytes (NHK); assay: MTS cell viability assay in normal keratinocytes; assay type: cell-based; details: 72 hours, GW843682X 10 μM, BI2536 5 μM
Protocol: For RNAi transfection, cells were seeded in 6-well plates at 2.5×10^5 cells/well and 24 hours later transfected as described above. Cells were left for 16 hours then trypsinized, counted on a CASY counter (Roche Diagnostics Ltd, West Sussex, UK) and seeded in 96 well plates at 3000 cells/well in 100 μl media. Cell viability was determined using the MTS assay as described above, with an absorbance reading at time of seeding (T0) and readings 48 and 72 hour post transfection. For small molecule inhibitor treatment cells were seeded in 96-well plates at 3000 cells/well and 24 hours later 100 μl fresh media containing drug at the designated final concentrations added. Viability was assessed as before.

[2] = system: cSCC keratinocytes (SCCIC1, SCCRDEB2); assay: MTS cell viability assay in cSCC keratinocytes; assay type: cell-based, human; details: 72 hours, GW843682X 10 μM, BI2536 5 μM
Protocol: For the initial high-throughput RNAi screen we used a custom library to our 21 up regulated genes containing the top 3 siRNA oligonucleotides per gene as ranked by Sigma. In each experiment a negative control (MISSION® siRNA Universal Negative Control #1, Sigma) and positive control (AllStars Hs Cell Death Control siRNA, Qiagen) were used. Cells were seeded in 96-well plates at 5000 cells/well in 100 μl keratinocyte media and transfected 24 hours later with siRNA (40 nM final concentration) using Lipofectamine™ 2000, Invitrogen, Carlsbad, Calif.) diluted in Opti-MEM® (Invitrogen) according to manufacturers instructions. Cell viability was assessed at 48, 72 and 96 hours post-transfection, and a reading taken at time zero (pre-transfection), using the MTS CellTitre 96 AQueous One Solution Cell Proliferation Assay (Promega, Madison, Wis.) according to manufacturers instructions. Absorbance readings were taken at 490 nm using a VersaMax microplate reader (Molecular Devices, Sunnyvale, Calif.).
For RNAi transfection, cells were seeded in 6-well plates at 2.5×10^5 cells/well and 24 hours later transfected as described above. Cells were left for 16 hours then trypsinized, counted on a CASY counter (Roche Diagnostics Ltd, West Sussex, UK) and seeded in 96 well plates at 3000 cells/well in 100 μl media. […] Viability was assessed as before.

[3] = system: cSCC keratinocytes; assay: Cell Death Detection ELISA (apoptosis, cytoplasmic nucleosomes) in cSCC cells; assay type: cell-based, human; details: GW843682X 10 μM, BI2536 5 μM, relative to drug vehicle control
Protocol: Apoptosis was detected using the Cell Death Detection ELISA^PLUS (Roche Diagnostics Ltd, West Sussex, UK). Cells were seeded in 24-well plates at 0.5×10^5 cells/well for 24 hours and either transfected with siRNA or treated with small molecule inhibitors for 24 or 16 hours respectively before collecting lysates and performing ELISA as described by manufacturer.

[4] = system: cSCC keratinocytes; assay: Cell cycle analysis (BrdU / propidium iodide, flow cytometry); assay type: cell-based, human; details: 20 hours following drug treatment, GW843682X 10 μM, BI2536 5 μM
Protocol: Cells were RNAi transfected or drug treated for designated times before BrdU (Sigma) was added at 30 μM final volume for 20 min. Cells were collected and fixed by dropping 1 ml cell suspension in PBS into 3 ml ice cold ethanol while vortexing. Pepsin (Sigma) was added at 1 mg/ml in 30 mM HCL for 30 min and DNA denatured with 2N HCL for 20 min. Anti-BrdU antibody (Becton Dickinson) diluted in PBS/0.5% Tween/0.5% BSA was added for one hour followed by 30 min incubation with a FITC-sheep anti-mouse IgG (Sigma). Propidium iodide (Sigma) was added in the final wash step at a concentration of 25 μg/ml and samples analyzed using a FACScan flow cytometer and CellQuest software (Becton Dickinson).

[5] = system: SCCIC1 xenograft tumors; assay: SCCIC1 xenograft tumor treatment in SCID mice; assay type: in vivo, SCID Balb/c mice
Protocol: FIG. 6—PLK1 inhibition and c20orf20 knockdown inhibits tumor growth in vivo. Female SCID Balb/c mice were subcutaneously injected in the right flank with 4×10^6 SCCIC1 cells mixed with high-concentration Matrigel®. When tumors reached a volume of 100 mm^3, animals were organised in treated and control groups. (A) Top panel: SCCIC1 tumors were treated with the PLK1 inhibitor, BI 2536. The treated group (n=3) was injected into the tumor with 100 μl of BI 2536 formulated in hydrochloric acid (0.1 N), diluted with 0.9% NaCl at a dose of 25 mg/kg, 3 times a week during 2 weeks. The control group (n=2) was injected with the vehicle at the same schedule. Tumor volumes were measured 3 times a week with a calliper for a further 2 weeks after treatment. Bottom panel: SCCIC1 tumors were treated with c20orf20 siRNA. The treated group (n=3) was injected into the tumor with 580 pmol c20orf20 targeting siRNA duplex in 100 μl PBS. The control group was injected with 580 pmol non-targeting siRNA duplex in approximately 100 μl PBS. Each group was treated every other day for 16 cycles. The animals were sacrificed 2 days after the last treatment. (B) Representative H&E stained section (top) and keratin immunostained section (bottom) of control (left) and BI2536-treated (right) SCCIC1 tumors after 2 weeks of treatment. A subset of animals was sacrificed at the end of the 6 cycles of treatment without waiting 2 more weeks. […] The control tumors contained numerous SCCIC1 cells (100× magnification). (C) Representative pictures from the experiment shown in (A) of vehicle (top left, tumor bisected showing both halves delineated by the dashed line) and BI2536-treated (top right) SCCIC1 tumors. […]
Primary keratinocytes were isolated and grown in the presence of a mitotically inactivated 3T3 feeder layer as described (Rheinwald and Beckett, 1981). […] Tumors were measured by caliper and treatment began when volume reached 100 mm^3.

SMILES: COc1cc2ncn(-c3cc(OCc4ccccc4C(F)(F)F)c(C(N)=O)s3)c2cc1OC [GW843682X]
- growth of normal primary keratinocytes (MTS assay) [1]: no effect
- cell viability (MTS assay) [2]: potent reduction of cell viability
- apoptosis (cleaved nucleosomes in the cytoplasm) [3]: substantial induction of apoptosis
- cell cycle distribution (G0/G1, S, G2/M) [4]: accumulation of cells at the G2/M phase

SMILES: CC[C@@H]1C(=O)N(C)c2cnc(Nc3ccc(C(=O)NC4CCN(C)CC4)cc3OC)nc2N1C1CCCC1 [BI2536]
- growth of normal primary keratinocytes (MTS assay) [1]: no effect
- cell viability (MTS assay) [2]: potent reduction of cell viability
- tumor volume at the end of the 6 cycles of treatment ([5]; BI2536 25 mg/kg injected into the tumor, 3 times a week, 2 weeks, treated versus control group): no difference in tumor volume
- presence of tumor keratinocytes in the tumor (histology) ([5]; BI2536 25 mg/kg injected into the tumor, 3 times a week, after 2 weeks of treatment, versus vehicle, 25 mg/kg): without any discernable SCCIC1 tumor cells; also recorded: marked reduction in the presence of tumor keratinocytes
- efficacy in treating cSCC in vivo ([5]; BI2536, SCCIC1 xenograft): dramatic efficacy
- apoptosis (cleaved nucleosomes in the cytoplasm) [3]: substantial induction of apoptosis
- cell cycle distribution (G0/G1, S, G2/M) [4]: accumulation of cells at the G2/M phase
